Values of other authors as cited in patent US20220287964A1, “TOPICAL FORMULATIONS COMPRISING CANNABIDIOL, METHOD OF PREP ARING THE COMPOSITION AND USE THEREOF” (CS Medica A/S, priority 2019, published 2022).

Conditions: oral administration, given for comparison; cited from earlier work

In the case of C=C(C)[C@@H]1CCC(C)=C[C@H]1c1c(O)cc(CCCCC)cc1O [cannabidiol, Cannabidiol], the “Absorbed through the gastrointestinal passage” value is listed as “less than 10%”.
